Measured values reported in US20220395464A1, “ORALLY ADMINISTERED SOLID DOSAGE FORM DRUG” (ASCENTAWITS PHARMACEUTICALS, LTD., priority 2019, published 2022).
Entries after “also recorded” stand apart in the source; their conditions may differ. Where two headings read alike, the source gives them in different places. Each block holds one molecule with its values, some of them ahead of it.

Experiments:
[1] = Solution stability study of AST-3424 in different solutions (HPLC content); type: physicochemical; conditions: for Time the API is stable in solution / Content: room temperature
Description: 1.3 Solution Stability Study
About 107.32 mg of AST-3424 (50% v/v, ethanol) was taken and placed in a 50 ml-measuring flask. Then, solvents which are an organic solvent, buffer solution or purified water, were respectively added to a scale mark. At each appointed time, 1 ml of samples was measured for HPLC analysis respectively. If the API was stable in the solution with the different pH values, a sampling appointed time was extended, for instance 5 days or more.
In the solubility study, for a determination of sample contents, 1 ml of culture medium were measured respectively, and then centrifuged at 1000 rpm for 10 minutes. Subnatant after centrifugation were collected respectively for HPLC analysis. In the solution stability study, the samples may be provided directly for HPLC analysis.
The contents were determined by a HPLC method: AST-3424 was used as an external standard for quantification.
A wavelength of UVDAD detector was 230 nm. C18 column was used at a temperature of 25° C.

[2] = test system: H460 non-small cell lung cancer; conditions: cited from earlier work
[3] = test system: H460 non-small cell lung cancer; experiment: In vitro proliferation inhibition assay, 2 h exposure, Alamar Blue, with or without AKR1C3 inhibitor TH3021; type: cell-based, human; conditions: for IC50: 2 h exposure, 70 h further incubation
Description: The activities of the compounds were evaluated by a proliferation inhibition assay of active cancer cells in vitro.
In vitro proliferation data for a human tumor cell line of H460 non-small cell lung cancer were reported in a Table of compounds below.
IC50 values were in nanomoles and were obtained by the following procedure. Cells were exposed in the compounds with different concentration for 2 hours. Next, the compounds were washed off, and fresh medium was added into plates. Afterwards, a growth rate and a cell-survival rate were obtained by cell staining and compared with a control treated with the medium only.
Specifically speaking, the exponentially growing cells were seeded in 96-well plates at a density of 4×10^3 cells/well, and incubated for 24 hours at 37° C. in 5% CO2, 95% air and 100% relative humidity. Next, the compounds were added. Complementary, the compounds were dissolved in 100% DMSO at 200 times a desired final test concentration. The compounds were further diluted to 4 times the desired final test concentration with complete medium when the drug was added. A 50 μl aliquot of drug with the specific concentrations of the compounds was added to the 96-well plates already containing 150 μl of medium respectively to get the final test concentration reported. After the drug was added, the 96-well plates were incubated for 2 hours at 37° C. in 5% CO2, 95% air and 100% relative humidity. Then, the drug was washed off, and the 96-well plates were incubated for 70 hours at 37° C. in 5% CO2, 95% air and 100% relative humidity after adding the fresh medium. At the end of this incubation, Alamar Blue assay was used to quantify viable cells. The concentrations of the drug causing 50% growth inhibition (IC50) were calculated using computer software, and results are presented in a table below.
A cancer cell proliferation activity of the compounds with or without AKR1C3 enzyme inhibition was measured with and without adding TH3021 (with a sufficient inhibitory concentration), an inhibitor of AKR1C3.

Compound: C[C@H](OP(=O)(N1CC1)N1CC1)c1ccc([N+](=O)[O-])c(Oc2cccc(C(=O)N(C)C)c2)c1 [AST-3424, (S)-1-(3-(3-N,N-Dimethylaminocarbonyl)phenoxy-4-nitrophenyl)-1-ethyl-N,N′-bis(ethylene) phosphoramidate]
Time the API is stable in solution ([1]; 1:1 solution of ethanol and propylene glycol): at least 72 hours
Content ([1]; Acetate buffer of pH 4.5, 0 h): 0.673 mg/mL
Content ([1]; Acetate buffer of pH 4.5, 1 h): 0.413 mg/mL
Content ([1]; Acetate buffer of pH 4.5, 4 h): 0.218 mg/mL
Content ([1]; Acetate buffer of pH 4.5, 8 h): 0.093 mg/mL
Content ([1]; Acetate buffer of pH 4.5, 24 h): 0.013 mg/mL
Content ([1]; Alkaline borate buffer of pH 10.0, 0 h): 1.265 mg/mL
Content ([1]; Alkaline borate buffer of pH 10.0, 1 h): 1.165 mg/mL
Content ([1]; Alkaline borate buffer of pH 10.0, 4 h): 1.261 mg/mL
Content ([1]; Alkaline borate buffer of pH 10.0, 8 h): 1.258 mg/mL
Content ([1]; Alkaline borate buffer of pH 10.0, 24 h): 1.261 mg/mL
Content ([1]; Alkaline borate buffer of pH 10.0, 48 h): 1.257 mg/mL
Content ([1]; Alkaline borate buffer of pH 10.0, 72 h): 1.242 mg/mL
Content ([1]; Ethanol/Propylene glycol (50:50, v/v), 0 h): 1.295 mg/mL
Content ([1]; Ethanol/Propylene glycol (50:50, v/v), 1 h): 1.287 mg/mL
Content ([1]; Ethanol/Propylene glycol (50:50, v/v), 4 h): 1.287 mg/mL
Content ([1]; Ethanol/Propylene glycol (50:50, v/v), 8 h): 1.287 mg/mL
Content ([1]; Ethanol/Propylene glycol (50:50, v/v), 24 h): 1.302 mg/mL
Content ([1]; Ethanol/Propylene glycol (50:50, v/v), 48 h): 1.284 mg/mL
Content ([1]; Ethanol/Propylene glycol (50:50, v/v), 72 h): 1.275 mg/mL
Content ([1]; Ethanol, 0 h): 1.238 mg/mL
Content ([1]; Ethanol, 1 h): 1.280 mg/mL
Content ([1]; Ethanol, 4 h): 1.246 mg/mL
Content ([1]; Ethanol, 8 h): 1.240 mg/mL
Content ([1]; Ethanol, 24 h): 1.240 mg/mL
Content ([1]; Ethanol, 48 h): 1.278 mg/mL
Content ([1]; Ethanol, 72 h): 1.236 mg/mL
Content ([1]; Phosphate buffer of pH 6.8, 0 h): 1.202 mg/mL
Content ([1]; Phosphate buffer of pH 6.8, 1 h): 1.200 mg/mL
Content ([1]; Phosphate buffer of pH 6.8, 4 h): 1.193 mg/mL
Content ([1]; Phosphate buffer of pH 6.8, 8 h): 1.185 mg/mL
Content ([1]; Phosphate buffer of pH 6.8, 24 h): 1.168 mg/mL
Content ([1]; Phosphate buffer of pH 6.8, 48 h): 1.145 mg/mL
Content ([1]; Phosphate buffer of pH 6.8, 72 h): 1.102 mg/mL
Content ([1]; Phosphate buffer of pH 7.4, 0 h): 1.267 mg/mL
Content ([1]; Phosphate buffer of pH 7.4, 1 h): 1.266 mg/mL
Content ([1]; Phosphate buffer of pH 7.4, 4 h): 1.266 mg/mL
Content ([1]; Phosphate buffer of pH 7.4, 8 h): 1.262 mg/mL
Content ([1]; Phosphate buffer of pH 7.4, 24 h): 1.262 mg/mL
Content ([1]; Phosphate buffer of pH 7.4, 48 h): 1.249 mg/mL
Content ([1]; Phosphate buffer of pH 7.4, 72 h): 1.228 mg/mL
Content ([1]; Purified water, 0 h): 1.186 mg/mL
Content ([1]; Purified water, 1 h): 1.126 mg/mL
Content ([1]; Purified water, 4 h): 1.056 mg/mL
Content ([1]; Purified water, 8 h): 1.005 mg/mL
Content ([1]; Purified water, 24 h): 0.918 mg/mL
Content ([1]; Purified water, 48 h): 0.860 mg/mL
Content ([1]; Purified water, 72 h): 0.810 mg/mL
Solution stability, in words ([1]; acetate buffer of pH 4.5): unstable; also recorded: very unstable
Time the API is stable in solution ([1]; buffer of pH 7.4): at least 72 hours
Time the API is stable in solution ([1]; buffer of pH 10.0): at least 72 hours
Time the API is stable in solution ([1]; ethanol): at least 72 hours
Solution stability, in words ([1]; phosphate buffer of pH 6.8): unstable; also recorded: less stable
Solution stability, in words ([1]; phosphate buffer of pH 7.4): stable
Solution stability, in words ([1]; purified water): unstable; also recorded: less stable
Time the API is stable in solution ([1]; solution of pH 6.8): at least 24 hours
IC50 ([2]; + TH3021 (inhibitor of AKR1C3), (Reference)): 141 nM
IC50 ([2]; without TH3021, (Reference)): < 4.57 nM

IC50 ([3]; H460, + TH3021 (inhibitor of AKR1C3)): 165 nM
IC50 ([3]; Homo sapiens, NCI-H460, H460, + TH3021 (inhibitor of AKR1C3)): 109 nM
IC50 ([3]; Homo sapiens, NCI-H460, H460, without TH3021): < 4.57 nM
Compound: [2H]C([2H])([2H])N(C(=O)c1cccc(Oc2cc([C@H](C)OP(=O)(N3CC3)N3CC3)ccc2[N+](=O)[O-])c1)C([2H])([2H])[2H] [AST-3424-D6]
In vitro activity compared with AST-3424, in words ([3]; H460, FIG. 1 and Table 12): similar
